# Non-standard residues stand in square brackets, D forms with d. Residues, ends and D or L forms follow the SMILES beside them. *: point of attachment. X1 = O=C(C(F)(F)C(F)(F)C(F)(F)C(F)(F)C(F)(F)C(F)(F)C(F)(F)F)*; Adamantane1carbonyl = O=C(C12CC3CC(CC(C3)C1)C2)*; Benzoyl(4-Ph) = O=C(c1ccc(-c2ccccc2)cc1)*; Benzoyl(4-tBu) = CC(C)(C)c1ccc(C(=O)*)cc1; Butanoyl(3,3-Me2) = CC(C)(C)CC(=O)*; Stearoyl = CCCCCCCCCCCCCCCCCC(=O)*; X3 = O=C1NC2CSC(CCCCC(=O)*)C2N1; Nicotinoyl = O=C(c1cccnc1)*; Orn = NCCC[C@H](N)C(=O)O; X2 = O=C(CC1CCC2CCCC21)*; X4 = O=C(CC1CC2CCC1C2)*; Boc = CC(C)(C)OC(=O)*; Piv = CC(C)(C)C(=O)*; Bz = O=C(c1ccccc1)*
# How the values were obtained:
# [1] = system: Mus musculus; assay: Analgesic activity in fasted male mice in phenylquinone writhing assay 5 min after i.c.v. administration.; type: functional
# [2] = system: Mus musculus; assay: Analgesic activity of i.v. administered compound in fasted male mice at 5 min. interval was determined using phenylquinone writhing assay; type: functional; details: iv
# [3] = system: Mus musculus; assay: Analgesic activity in fasted male mice in phenylquinone writhing assay 40 min after i.c.v. administration.; type: functional
# [4] = system: Mus musculus; assay: Analgesic activity in fasted male mice in phenylquinone writhing assay 10 min after i.c.v. administration.; type: functional
# [5] = system: Mus musculus; assay: Analgesic activity of i.v. administered compound in fasted male mice at 10 min. interval was determined using phenylquinone writhing assay; type: functional; details: iv
# [6] = molecular target: Neurotensin receptor type 1 (Rattus norvegicus, UniProt P20789); assay: Binding affinity against rat neurotensin receptor.
# [7] = molecular target: Kappa-type opioid receptor (Cavia porcellus, UniProt P41144); assay: Compound was evaluated for binding affinity against Opioid receptor kappa 1 by opioid receptor binding assay: Inactive
# [8] = molecular target: Mu-type opioid receptor (Cavia porcellus, UniProt P97266); assay: Compound was evaluated for binding affinity against mu receptor by opioid receptor binding assay: Inactive
# Chain of Mu-type opioid receptor (P97266 whole entry): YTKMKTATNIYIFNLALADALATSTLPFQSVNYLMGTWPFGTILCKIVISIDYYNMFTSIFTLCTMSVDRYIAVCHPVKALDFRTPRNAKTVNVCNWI
# Chain of Neurotensin receptor type 1 (P20789 whole entry): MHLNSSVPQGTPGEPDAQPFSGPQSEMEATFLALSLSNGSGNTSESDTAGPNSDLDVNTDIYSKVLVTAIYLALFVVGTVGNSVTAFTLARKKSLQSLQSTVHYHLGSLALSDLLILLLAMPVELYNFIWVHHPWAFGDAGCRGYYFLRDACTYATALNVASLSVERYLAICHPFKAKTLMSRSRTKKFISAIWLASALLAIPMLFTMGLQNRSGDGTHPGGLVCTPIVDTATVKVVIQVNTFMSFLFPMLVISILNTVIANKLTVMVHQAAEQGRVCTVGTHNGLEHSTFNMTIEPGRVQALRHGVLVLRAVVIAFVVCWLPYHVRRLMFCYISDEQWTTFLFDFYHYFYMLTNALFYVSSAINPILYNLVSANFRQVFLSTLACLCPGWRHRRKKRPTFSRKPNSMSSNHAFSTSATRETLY
# Chain of Kappa-type opioid receptor (P41144 whole entry): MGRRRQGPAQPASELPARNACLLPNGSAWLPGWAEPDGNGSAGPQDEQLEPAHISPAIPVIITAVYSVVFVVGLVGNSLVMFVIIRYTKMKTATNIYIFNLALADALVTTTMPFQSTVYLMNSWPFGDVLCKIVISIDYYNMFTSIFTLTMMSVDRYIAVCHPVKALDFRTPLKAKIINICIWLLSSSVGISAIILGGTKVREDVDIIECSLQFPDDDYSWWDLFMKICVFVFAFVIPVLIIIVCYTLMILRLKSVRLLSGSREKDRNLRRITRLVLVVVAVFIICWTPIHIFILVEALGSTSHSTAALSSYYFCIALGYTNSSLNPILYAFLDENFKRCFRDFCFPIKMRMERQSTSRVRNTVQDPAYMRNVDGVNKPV
Ki [6] [nM],Molecule,ED50 [1] [ug mouse-1],ED50 [2] [mg/kg],ED50 [3] [ug mouse-1],ED50 [4] [ug mouse-1],ED50 [5] [mg/kg],Ki [7] [µM],Ki [8] [µM]
,CC[C@H](C)[C@H](NC(=O)[C@H](Cc1ccc(O)cc1)NC(=O)[C@@H]1CCCN1C(=O)[C@H](CCCCN)NC(=O)C(C)(C)C)C(=O)N[C@@H](CC(C)C)C(=O)O (Piv-KPYIL-OH) [listing 1 of 2 here],0.28,15,0.7,0.29,15,,
2100,CC[C@H](C)[C@H](NC(=O)[C@H](Cc1ccc(O)cc1)NC(=O)[C@@H]1CCCN1C(=O)[C@H](CCCCN)NC(=O)C(F)(F)C(F)(F)C(F)(F)C(F)(F)C(F)(F)C(F)(F)C(F)(F)F)C(=O)N[C@@H](CC(C)C)C(=O)O (X1-KPYIL-OH) [listing 1 of 2 here],,,,,,,
680,"CC[C@H](C)[C@H](NC(=O)[C@H](Cc1ccc(O)cc1)NC(=O)[C@@H]1CCCN1C(=O)[C@H](CCCCN)NC(=O)CC(C)(C)C)C(=O)N[C@@H](CC(C)C)C(=O)O ({Butanoyl(3,3-Me2)}-KPYIL-OH) [listing 1 of 2 here]",,,,,,,
,CC[C@H](C)[C@H](NC(=O)[C@H](Cc1ccc(O)cc1)NC(=O)[C@@H]1CCCN1C(=O)[C@H](CCCCN)NC(=O)CCCCC1SCC2NC(=O)NC21)C(=O)N[C@@H](CC(C)C)C(=O)O (stereo not given in full) (X3-KPYIL-OH) [listing 1 of 2 here],0.86,> 81,8.3,2,≥ 81,,
,H-KPYIL-OH,8,> 81,26,10,> 81,,
100,CC[C@H](C)[C@H](NC(=O)[C@H](Cc1ccc(O)cc1)NC(=O)[C@@H]1CCCN1C(=O)[C@H](CCCCN)NC(=O)c1ccccc1)C(=O)N[C@@H](CC(C)C)C(=O)O (Bz-KPYIL-OH) [listing 1 of 2 here],,,,,,,
290,CC[C@H](C)[C@H](NC(=O)[C@H](Cc1ccc(O)cc1)NC(=O)[C@@H]1CCCN1C(=O)[C@H](CCCCN)NC(=O)CCCCC1SCC2NC(=O)NC21)C(=O)N[C@@H](CC(C)C)C(=O)O (stereo not given in full) (X3-KPYIL-OH) [listing 2 of 2 here],,,,,,,
420,CC[C@H](C)[C@H](NC(=O)[C@H](Cc1ccc(O)cc1)NC(=O)[C@@H]1CCCN1C(=O)[C@H](CCCCN)NC(=O)c1cccnc1)C(=O)N[C@@H](CC(C)C)C(=O)O (Nicotinoyl-KPYIL-OH) [listing 1 of 2 here],,,,,,,
,CC[C@H](C)[C@H](NC(=O)[C@H](Cc1ccc(O)cc1)NC(=O)[C@@H]1CCCN1C(=O)[C@H](CCCN)NC(=O)C12CC3CC(CC(C3)C1)C2)C(=O)N[C@@H](CC(C)C)C(=O)O (Adamantane1carbonyl-[Orn]PYIL-OH) [listing 1 of 2 here],0.13,4.8,3.6,0.45,11,,
,CC[C@H](C)[C@H](NC(=O)[C@H](Cc1ccc(O)cc1)NC(=O)[C@@H]1CCCN1C(=O)[C@H](CCCCN)NC(=O)c1cccnc1)C(=O)N[C@@H](CC(C)C)C(=O)O (Nicotinoyl-KPYIL-OH) [listing 2 of 2 here],0.0016,3.6,0.3,0.016,3,,
,CCCCCCCCCCCCCCCCCC(=O)N[C@@H](CCCCN)C(=O)N1CCC[C@H]1C(=O)N[C@@H](Cc1ccc(O)cc1)C(=O)N[C@H](C(=O)N[C@@H](CC(C)C)C(=O)O)[C@@H](C)CC (Stearoyl-KPYIL-OH) [listing 1 of 2 here],38,,>50,>50,,,
,"CC[C@H](C)[C@H](NC(=O)[C@H](Cc1ccc(O)cc1)NC(=O)[C@@H]1CCCN1C(=O)[C@H](CCCCN)NC(=O)CC(C)(C)C)C(=O)N[C@@H](CC(C)C)C(=O)O ({Butanoyl(3,3-Me2)}-KPYIL-OH) [listing 2 of 2 here]",0.095,6.2,1.2,0.1,4.9,,
,Ac-KPYIL-OH [listing 1 of 2 here],<50,,<50,<50,,,
,CC[C@H](C)[C@H](NC(=O)[C@H](Cc1ccc(O)cc1)NC(=O)[C@@H]1CCCN1C(=O)[C@H](CCCN)NC(=O)OC(C)(C)C)C(=O)N[C@@H](CC(C)C)C(=O)O (Boc-[Orn]PYIL-OH),0.00084,0.85,0.69,0.044,2,,
540,CC[C@H](C)[C@H](NC(=O)[C@H](Cc1ccc(O)cc1)NC(=O)[C@@H]1CCCN1C(=O)[C@H](CCCCN)NC(=O)CC1CCC2CCCC21)C(=O)N[C@@H](CC(C)C)C(=O)O (stereo not given in full) (X2-KPYIL-OH),0.1,12,2.5,0.41,15,,
> 10000,CCCCCCCCCCCCCCCCCC(=O)N[C@@H](CCCCN)C(=O)N1CCC[C@H]1C(=O)N[C@@H](Cc1ccc(O)cc1)C(=O)N[C@H](C(=O)N[C@@H](CC(C)C)C(=O)O)[C@@H](C)CC (Stearoyl-KPYIL-OH) [listing 2 of 2 here],,,,,,,
,CC[C@H](C)[C@H](NC(=O)[C@H](Cc1ccc(O)cc1)NC(=O)[C@@H]1CCCN1C(=O)[C@H](CCCCN)NC(=O)c1ccc(C(C)(C)C)cc1)C(=O)N[C@@H](CC(C)C)C(=O)O ({Benzoyl(4-tBu)}-KPYIL-OH) [listing 1 of 2 here],0.075,12,0.32,0.088,6.6,,
180,CC[C@H](C)[C@H](NC(=O)[C@H](Cc1ccc(O)cc1)NC(=O)[C@@H]1CCCN1C(=O)[C@H](CCCN)NC(=O)C12CC3CC(CC(C3)C1)C2)C(=O)N[C@@H](CC(C)C)C(=O)O (Adamantane1carbonyl-[Orn]PYIL-OH) [listing 2 of 2 here],,,,,,,
1000,CC[C@H](C)[C@H](NC(=O)[C@H](Cc1ccc(O)cc1)NC(=O)[C@@H]1CCCN1C(=O)[C@H](CCCCN)NC(=O)CC1CC2CCC1C2)C(=O)N[C@@H](CC(C)C)C(=O)O (stereo not given in full) (X4-KPYIL-OH),0.018,24,2.7,0.29,19,,
,CC[C@H](C)[C@H](NC(=O)[C@H](Cc1ccc(O)cc1)NC(=O)[C@@H]1CCCN1C(=O)[C@H](CCCCN)NC(=O)c1ccc(-c2ccccc2)cc1)C(=O)N[C@@H](CC(C)C)C(=O)O ({Benzoyl(4-Ph)}-KPYIL-OH) [listing 1 of 2 here],1.7,< 27,50,2.8,13,,
,CC[C@H](C)[C@H](NC(=O)[C@H](Cc1ccc(O)cc1)NC(=O)[C@@H]1CCCN1C(=O)[C@H](CCCCN)NC(=O)c1ccccc1)C(=O)N[C@@H](CC(C)C)C(=O)O (Bz-KPYIL-OH) [listing 2 of 2 here],0.0088,6.6,1.5,0.16,5.5,,
520,CC[C@H](C)[C@H](NC(=O)[C@H](Cc1ccc(O)cc1)NC(=O)[C@@H]1CCCN1C(=O)[C@@H](N)CCCN)C(=O)N[C@@H](CC(C)C)C(=O)O (H-[Orn]PYIL-OH) [listing 1 of 2 here],,,,,,,
220,CC[C@H](C)[C@H](NC(=O)[C@H](Cc1ccc(O)cc1)NC(=O)[C@@H]1CCCN1C(=O)[C@H](CCCCN)NC(=O)c1ccc(C(C)(C)C)cc1)C(=O)N[C@@H](CC(C)C)C(=O)O ({Benzoyl(4-tBu)}-KPYIL-OH) [listing 2 of 2 here],,,,,,,
,CC[C@H](C)[C@H](NC(=O)[C@H](Cc1ccc(O)cc1)NC(=O)[C@@H]1CCCN1C(=O)[C@H](CCCCN)NC(=O)C(F)(F)C(F)(F)C(F)(F)C(F)(F)C(F)(F)C(F)(F)C(F)(F)F)C(=O)N[C@@H](CC(C)C)C(=O)O (X1-KPYIL-OH) [listing 2 of 2 here],2.2,32,4.4,3.7,17,,
190,CC[C@H](C)[C@H](NC(=O)[C@H](Cc1ccc(O)cc1)NC(=O)[C@@H]1CCCN1C(=O)[C@H](CCCCN)NC(=O)C(C)(C)C)C(=O)N[C@@H](CC(C)C)C(=O)O (Piv-KPYIL-OH) [listing 2 of 2 here],,,,,,,
,CC[C@H](C)[C@H](NC(=O)[C@H](Cc1ccc(O)cc1)NC(=O)[C@@H]1CCCN1C(=O)[C@@H](N)CCCN)C(=O)N[C@@H](CC(C)C)C(=O)O (H-[Orn]PYIL-OH) [listing 2 of 2 here],23,,67,20,,,
880,CC[C@H](C)[C@H](NC(=O)[C@H](Cc1ccc(O)cc1)NC(=O)[C@@H]1CCCN1C(=O)[C@H](CCCCN)NC(=O)c1ccc(-c2ccccc2)cc1)C(=O)N[C@@H](CC(C)C)C(=O)O ({Benzoyl(4-Ph)}-KPYIL-OH) [listing 2 of 2 here],,,,,,,
,CC[C@H](C)[C@H](NC(=O)[C@H](Cc1ccc(O)cc1)NC(=O)[C@@H]1CCCN1C(=O)[C@H](CCCCN)NC(=O)C12CC3CC(CC(C3)C1)C2)C(=O)N[C@@H](CC(C)C)C(=O)O (Adamantane1carbonyl-KPYIL-OH),0.15,2.2,0.71,0.22,2.8,> 10,> 10
2100,Ac-KPYIL-OH [listing 2 of 2 here],,,,,,,
,CC[C@H](C)[C@H](NC(=O)[C@H](Cc1ccc(O)cc1)NC(=O)[C@@H]1CCCN1C(=O)[C@H](CCCCN)NC(=O)OC(C)(C)C)C(=O)N[C@@H](CC(C)C)C(=O)O (Boc-KPYIL-OH),0.02,3.1,0.2,0.11,6.5,,

# Source: ChEMBL document CHEMBL1127122, “Neurotensin receptor binding and antinociceptive activity for lipophilic N-amido neurotensin(913) analogs” (Bioorg Med Chem Lett, 1993)
